Structures are written as SMILES.

Data on 1 molecule can be found in US4371464A, “Dipeptide sweetener” (Stamicarbon, B.V., priority 1980, dated 1983).

A short description of the assay: organoleptic research (sweetness compared with sucrose). As to conditions: reference sucrose.

On to `COC(=O)[C@@H](NC(=O)[C@H](CC(=O)O)NC(=O)NC=O)c1ccccc1` [II, N-(N'-formyl)-carbamyl-L-alpha-aspartyl-L-phenylglycinemethylester], for which the “sweetness relative to sucrose” value is given as 200 times sweeter than sucrose.
